In data set [1] the target is T1, Xanthine dehydrogenase/oxidase (Bos taurus, UniProt P80457). Kind of data set: Inhibition of bovine xanthine oxidase assessed as reduction in uric acid formation using xanthine as substrate preincubated with enzyme for 15 mins followed by substrate addition and measured every 30 secs for 2 mins by spectrophotometric method.
Data set [2] deals with T1, Xanthine dehydrogenase/oxidase. Kind of data set: Potency index, Ratio of allopurinol IC50 to compound IC50 for bovine xanthine oxidase using xanthine as substrate by spectrophotometry. As to conditions: cattle.
The test system of data set [3] is Rattus norvegicus. Description: Anti-hyperuricemic activity in potassium oxonate-induced acute hyperuricemia Sprague-Dawley rat model assessed as reduction in AUC of uric acid in serum at 10 mg/kg, ig pretreated for 1 hr followed by potassium oxonate challenge and measured at 2 hrs post drug administration (reference value: 23%). Type of data set: functional. As to conditions: po.

The test system of data set [4] is Rattus norvegicus. Description: Anti-hyperuricemic activity in potassium oxonate-induced acute hyperuricemia Sprague-Dawley rat model assessed as reduction in AUC of uric acid in serum at 5 mg/kg, ig pretreated for 1 hr followed by potassium oxonate challenge and measured at 2 hrs post drug administration (reference value: 23%). To be noted: po. It is filed as functional.

The target of data set [5] is T1, Xanthine dehydrogenase/oxidase. Kind of data set: Mixed type inhibition of bovine xanthine oxidase assessed as increase in Km with decrease in Vmax of the enzyme using xanthine as substrate preincubated with enzyme for 15 mins followed by substrate addition and measured every 30 secs for 2 mins by Lineweaver-Burk plot analysis. As to conditions: cattle.
Data set [6] relates to Rattus norvegicus. Kind of data set: Anti-hyperuricemic activity in potassium oxonate-induced acute hyperuricemia Sprague-Dawley rat model assessed as reduction in uric acid level in serum at 5 mg/kg, ig pretreated for 1 hr followed by potassium oxonate challenge and measured at 2 hrs post drug administration. Type of data set: functional, organism-based.
Data set [7] can be described thus: Acute oral toxicity in KM mouse assessed as change in behavior at 2000 mg/kg measured for 24 hrs. Type of data set: organism-based. As to conditions: in vivo.
The nature of data set [8]: Acute oral toxicity in KM mouse measured for 24 hrs by OCED guideline method. As to conditions: in vivo.

Molecules are shown by their SMILES. Calls of active or inactive are those of the source. The rule behind the calls is not given here. Some results are limits rather than exact numbers.

T1 sequence (P80457 whole entry): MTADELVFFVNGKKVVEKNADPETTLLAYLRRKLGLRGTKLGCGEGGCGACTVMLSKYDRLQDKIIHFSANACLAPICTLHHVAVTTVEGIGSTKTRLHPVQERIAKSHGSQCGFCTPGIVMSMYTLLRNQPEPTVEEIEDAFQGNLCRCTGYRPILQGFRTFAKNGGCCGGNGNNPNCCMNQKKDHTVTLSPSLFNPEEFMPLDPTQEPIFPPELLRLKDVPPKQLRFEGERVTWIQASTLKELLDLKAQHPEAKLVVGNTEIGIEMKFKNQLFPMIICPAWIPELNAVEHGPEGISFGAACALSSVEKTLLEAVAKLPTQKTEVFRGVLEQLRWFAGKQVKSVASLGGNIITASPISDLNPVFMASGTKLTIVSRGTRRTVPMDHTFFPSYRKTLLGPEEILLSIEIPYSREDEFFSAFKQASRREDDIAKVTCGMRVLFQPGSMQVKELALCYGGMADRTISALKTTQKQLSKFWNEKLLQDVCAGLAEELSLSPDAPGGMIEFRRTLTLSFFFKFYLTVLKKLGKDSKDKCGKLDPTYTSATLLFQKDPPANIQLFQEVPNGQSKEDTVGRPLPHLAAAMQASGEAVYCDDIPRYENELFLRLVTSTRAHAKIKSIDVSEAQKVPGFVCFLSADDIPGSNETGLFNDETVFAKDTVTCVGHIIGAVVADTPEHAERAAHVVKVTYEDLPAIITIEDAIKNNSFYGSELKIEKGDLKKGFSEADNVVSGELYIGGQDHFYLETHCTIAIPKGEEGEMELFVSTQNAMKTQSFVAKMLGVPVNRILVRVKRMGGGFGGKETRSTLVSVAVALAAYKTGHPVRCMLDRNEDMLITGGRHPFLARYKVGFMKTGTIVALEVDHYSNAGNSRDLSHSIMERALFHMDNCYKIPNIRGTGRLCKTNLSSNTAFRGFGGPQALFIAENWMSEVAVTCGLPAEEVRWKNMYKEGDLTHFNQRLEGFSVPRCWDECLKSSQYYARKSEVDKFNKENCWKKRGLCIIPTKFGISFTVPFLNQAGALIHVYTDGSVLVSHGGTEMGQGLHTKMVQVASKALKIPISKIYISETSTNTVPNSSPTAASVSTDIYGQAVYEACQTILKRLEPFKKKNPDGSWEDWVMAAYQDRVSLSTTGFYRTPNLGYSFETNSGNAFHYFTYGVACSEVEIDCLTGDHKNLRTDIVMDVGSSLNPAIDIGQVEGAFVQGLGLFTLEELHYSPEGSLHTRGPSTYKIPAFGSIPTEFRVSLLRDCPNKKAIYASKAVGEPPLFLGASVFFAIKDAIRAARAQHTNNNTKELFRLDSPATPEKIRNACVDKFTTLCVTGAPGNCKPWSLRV

For `C=C(C)COc1ccc(-c2ncc(C(=O)O)c(=N)[nH]2)cc1C#N`, the IC50 in data set [1] came out at 18.1 nM. Moreover, the “Ratio IC50” value in data set [2] worked out at 419.
With `C=C(C)COc1ccc(-c2ncc(C(=O)O)c(=O)[nH]2)cc1C#N`, the IC50 in data set [1] stood at 33.6 nM.
Still for that read-out and setting: the same measure for `CC(C)Oc1ccc(-c2ncc(C(=O)O)c(=O)[nH]2)cc1C#N`: 91.6 nM; for `CC(C)(C)c1ccc(COc2ccc(-c3ncc(C(=O)O)c(=O)[nH]3)cc2C#N)cc1`: 197 nM; for `C=C(C)COc1ccc(-c2nc(C)c(C(=O)O)c(=O)[nH]2)cc1C#N`: 568 nM.
For the compound `Oc1ncnc2[nH]ncc12` [ALLOPURINOL], in the data set on Rattus norvegicus [3], the inhibition in vivo at 10 mg/kg is 38.7%.
In the case of `N#Cc1cc(-c2ncc(C(=O)O)c(=O)[nH]2)ccc1OCc1ccc(Cl)cc1`, the IC50 in data set [1] is 49.9 nM.
On the same count and under the same terms, the same measure for `N#Cc1cc(-c2ncc(C(=O)O)c(=N)[nH]2)ccc1OCc1ccc(Br)cc1`: 27.1 nM; for `CC(C)CCOc1ccc(-c2ncc(C(=O)O)c(=O)[nH]2)cc1C#N`: 25 nM; for `CC(C)COc1ccc(-c2ncc(C(=O)O)c(=O)[nH]2)cc1C#N`: 60.9 nM.
`N#Cc1cc(-c2ncc(C(=O)O)c(=O)[nH]2)ccc1OCc1ccccc1`: the IC50 in data set [1] came to 38.7 nM.
Turning to `Cc1ccc(COc2ccc(-c3nc(C)c(C(=O)O)c(=O)[nH]3)cc2C#N)cc1`, the IC50 in data set [1] came out at 159 nM.
On the same count and under the same terms, the same measure for `CC(C)=CCOc1ccc(-c2ncc(C(=O)O)c(=O)[nH]2)cc1C#N`: 38.8 nM; for `N#Cc1cc(-c2ncc(C(=O)O)c(=O)[nH]2)ccc1OCc1ccc(Br)cc1`: 29.8 nM.
For `Cc1ccc(COc2ccc(-c3ncc(C(=O)O)c(=N)[nH]3)cc2C#N)cc1`, the half-inhibitory concentration (IC50) in data set [1] was 33.9 nM.
Consider `Cc1ccc(COc2ccc(-c3ncc(C(=O)O)c(=O)[nH]3)cc2C#N)cc1`, for which the IC50 in data set [1] amounted to 35.4 nM.
On to `Cc1nc(-c2ccc(OCC(C)C)c(C#N)c2)sc1C(=O)O` [FEBUXOSTAT], for which, in the data set on Rattus norvegicus [4], the inhibition in vivo at 5 mg/kg turned out to be 50.8%.
With `CC(C)CCOc1ccc(-c2ncc(C(=O)O)c(=N)[nH]2)cc1C#N`, the “inhibition (INH)” value in data set [5] is “Active”. In the data set on Rattus norvegicus [6], the inhibition entry is “Active”. Moreover, the Activity result in data set [7] is recorded as “Non-Toxic”. Besides, the LD50 at 24 h in data set [8] is more than 2000 mg/kg. The inhibition in vivo at 5 mg/kg with Rattus norvegicus [4] stood at 36.1%.
Consider `Cc1nc(-c2ccc(OCc3ccc(Br)cc3)c(C#N)c2)[nH]c(=O)c1C(=O)O`, for which the half-inhibitory concentration (IC50) in data set [1] worked out at 185 nM.
The same measure, in the same setting: the value for `Cc1nc(-c2ccc(OCCC(C)C)c(C#N)c2)[nH]c(=O)c1C(=O)O` was 540 nM.
The same measure, in the same setting: the value for `N#Cc1cc(-c2ncc(C(=O)O)c(=O)[nH]2)ccc1OCc1ccc(F)cc1` was 38.2 nM; that for `C=CCOc1ccc(-c2ncc(C(=O)O)c(=O)[nH]2)cc1C#N` was 81.1 nM.

Broadly, the IC50 is the concentration that inhibits the measured activity by half. As usually defined, the inhibition in vivo is the change of the read-out against control, counted positive when it falls. As a reminder, the LD50 is the dose expected to kill half of the subjects tested.
